Reference: DBAASP
≈ marks a conversion by molar mass, not a printed value. Values belong to the molecule of their own block, whether it stands above or below them.

Experiments:
Experiment in all cases: ≥ marks a high value that may be exact or a test limit, other limits are often not marked, values filed in µg/mL are converted to µM
[1] = system: Pseudomonas aeruginosa PA330
[2] = system: Pseudomonas aeruginosa PAO1
Escherichia coli K-12 = system: Escherichia coli K-12
[3] = system: Pseudomonas aeruginosa PA214
[4] = system: Salmonella enterica subsp. enterica serovar Pullorum C79-13
[5] = system: Cronobacter sakazakii ATCC 29544
[6] = system: Staphylococcus aureus ATCC 25923
[7] = system: Salmonella typhimurium KCTC 1926
Escherichia coli UB1005 = system: Escherichia coli UB1005
[8] = system: Listeria monocytogenes CMCC 54004
[9] = system: Pseudomonas aeruginosa KCTC 1637
[10] = system: Escherichia coli KCTC 1682
[11] = system: Staphylococcus epidermidis KCTC 1917
[12] = system: Bacillus cereus CMCC 6303
[13] = system: Salmonella enterica subsp. enterica CMCC 47020
[14] = system: Staphylococcus aureus KCTC 1621
[15] = system: Bacillus subtilis KCTC 3068
[16] = system: Salmonella enterica subsp. enterica serovar Typhimurium ATCC 14028
[17] = system: Staphylococcus aureus CMCC 26074
[18] = system: Salmonella enterica subsp. enterica serovar Typhi CMCC 50071
[19] = system: Salmonella enterica subsp. enterica serovar Typhimurium C77-31
[20] = system: Cryptococcus neoformans ATCC 208821
[21] = system: Klebsiella pneumoniae ATCC 700603
[22] = system: Escherichia coli ATCC 25922
[23] = system: Staphylococcus aureus SH1000
[24] = system: Acinetobacter baumannii ATCC 19606
[25] = system: Candida albicans ATCC 90028
[26] = system: Staphylococcus aureus ATCC 43300
[27] = system: Pseudomonas aeruginosa ATCC 27853
[28] = system: Bacillus licheniformis ATCC 14580
[29] = system: Enterococcus faecalis 1F-1
[30] = system: Proteus mirabilis ATCC 35659
[31] = system: Staphylococcus aureus ATCC 29213
[32] = system: Bacillus subtilis ATCC 6051
[33] = system: Salmonella enterica ATCC H9812
[34] = system: Enterococcus faecium 5F-10
[35] = system: Bacillus cereus ATCC 14579
[36] = system: Bacillus amyloliquefaciens ATCC 23842
[37] = system: Pseudomonas aeruginosa H187
[38] = system: Escherichia coli DH5alpha

Compound: C[C@H](NC(=O)[C@H](C)NC(=O)[C@H](CCCCN)NC(=O)[C@H](Cc1ccccc1)NC(=O)[C@H](C)NC(=O)[C@H](CCCCN)NC(=O)[C@H](C)NC(=O)[C@H](Cc1c[nH]c2ccccc12)NC(=O)[C@H](C)NC(=O)[C@H](CCCCN)NC(=O)[C@H](C)NC(=O)[C@H](Cc1ccccc1)NC(=O)[C@H](C)NC(=O)[C@H](CCCCN)NC(=O)[C@H](C)NC(=O)[C@H](CCCCN)NC(=O)[C@@H](N)CCCCN)C(N)=O [KKAKAFAKAWAKAFKAA]
- MIC [1]: ≥ 50 µM
- MIC [2]: 25 µM (≈ 45.9 µg/mL)
- MIC (Escherichia coli K-12): 12.5 µM (≈ 22.9 µg/mL)
- MIC [3]: ≥ 50 µM

Compound: CC(C)C[C@H](NC(=O)CN)C(=O)N[C@@H](Cc1ccccc1)C(=O)N[C@@H](CCCCN)C(=O)N[C@@H](CC(C)C)C(=O)N[C@@H](CC(C)C)C(=O)N[C@@H](CCCCN)C(=O)N[C@@H](CCCCN)C(=O)N[C@@H](CC(C)C)C(=O)N[C@@H](CC(C)C)C(=O)N[C@@H](CCCCN)C(=O)N[C@@H](CC(C)C)C(=O)N[C@@H](CC(C)C)C(=O)N[C@@H](CCCCN)C(N)=O [GLFKLLKKLLKLLK]
- MIC [20]: 20 µM (≈ 33.1 µg/mL)
- MIC [21]: > 20 µM
- MIC [22]: > 20 µM
- MIC [23]: ≥ 33 µM
- MIC [24]: > 20 µM
- MIC [25]: 20 µM (≈ 33.1 µg/mL)
- MIC [26]: > 20 µM
- MIC [27]: > 20 µM

Compound: CC(C)C[C@H](NC(=O)[C@@H](N)CC(C)C)C(=O)N[C@@H](CO)C(=O)N[C@@H](CCCN=C(N)N)C(=O)N[C@H](C(=O)O)C(C)C [LLSRV]
- MIC [28]: ≥ 218 µM
- MIC [29]: ≥ 218 µM
- MIC [30]: ≥ 218 µM
- MIC [31]: > 218 µM
- MIC [32]: ≥ 218 µM
- MIC [33]: ≥ 218 µM
- MIC [22]: > 218 µM
- MIC [2]: > 218 µM
- MIC [34]: ≥ 218 µM
- MIC [35]: ≥ 218 µM
- MIC [36]: ≥ 218 µM

Compound: CC[C@H](C)[C@H](NC(=O)[C@H](Cc1ccccc1)NC(=O)[C@H](CCCCN)NC(=O)[C@H](CCCCN)NC(=O)[C@H](Cc1c[nH]c2ccccc12)NC(=O)[C@@H](N)CCCCN)C(=O)N[C@@H](CCCCN)C(=O)N[C@@H](CCC(=O)O)C(=O)N[C@@H](CC(C)C)C(=O)N[C@@H](CCC(N)=O)C(=O)N[C@@H](CCCCN)C(=O)N[C@H](C(=O)N[C@@H](CC(C)C)C(=O)N[C@@H](C)C(=O)N1CCC[C@H]1C(=O)NCC(=O)NCC(=O)N[C@@H](CC(C)C)C(=O)N[C@@H](CC(C)C)C(=O)N[C@@H](CO)C(=O)N[C@@H](CC(N)=O)C(=O)N[C@H](C(=O)N[C@H](C(=O)N[C@H](C(=O)N[C@@H](CO)C(=O)N[C@@H](CC(C)C)C(=O)O)[C@@H](C)O)C(C)C)[C@@H](C)CC)C(C)C [KWKKFIKELQKVLAPGGLLSNIVTSL]
- MIC (Escherichia coli UB1005): 1.72 µM (≈ 5 µg/mL)
- MIC [37]: 3.43 µM (≈ 10 µg/mL)

Compound: CC(C)C[C@H](NC(=O)[C@H](C)NC(=O)[C@H](CCCCN)NC(=O)[C@H](Cc1ccccc1)NC(=O)[C@H](CC(C)C)NC(=O)[C@H](CCCCN)NC(=O)[C@H](C)NC(=O)[C@H](Cc1c[nH]c2ccccc12)NC(=O)[C@H](CC(C)C)NC(=O)[C@H](CCCCN)NC(=O)[C@H](CC(C)C)NC(=O)[C@H](Cc1ccccc1)NC(=O)[C@H](C)NC(=O)[C@H](C)NC(=O)[C@H](CCCCN)NC(=O)[C@H](CCCCN)NC(=O)[C@@H](N)CCCCN)C(N)=O [KKKAAFLKLWAKLFKAL]
- MIC [1]: 6.3 µM (≈ 12.6 µg/mL)
- MIC [2]: 3.1 µM (≈ 6.21 µg/mL)
- MIC (Escherichia coli K-12): 3.1 µM (≈ 6.21 µg/mL)
- MIC [3]: 3.1 µM (≈ 6.21 µg/mL)

Other lines, results leading:

- MIC [4]: ≥ 256 µM
- MIC [5]: ≥ 256 µM
- MIC [6]: > 256 µM
- MIC [7]: 4.21 µM (≈ 6.24 µg/mL)
- MIC (Escherichia coli UB1005): ≥ 128 µM
- MIC [8]: ≥ 128 µM
- MIC [9]: 16.8 µM (≈ 25 µg/mL)
- MIC [10]: 8.41 µM (≈ 12.5 µg/mL)
- MIC [11]: 4.21 µM (≈ 6.24 µg/mL)
- MIC [12]: ≥ 64 µM
- MIC [13]: ≥ 128 µM
- MIC [14]: 4.21 µM (≈ 6.24 µg/mL)
- MIC [15]: 4.21 µM (≈ 6.24 µg/mL)
- MIC [16]: 128 µM (≈ 190 µg/mL)
- MIC [17]: ≥ 256 µM
- MIC [18]: ≥ 64 µM
- MIC [19]: ≥ 256 µM
Compound: CC[C@H](C)[C@@H]1NC(=O)[C@H](CCCN=C(N)N)NC(=O)[C@@H](NC(=O)[C@H](CC(C)C)NC(=O)[C@@H](N)CCCN=C(N)N)CSSC[C@@H](C(=O)N[C@@H](CCCN=C(N)N)C(N)=O)NC(=O)[C@H](C(C)C)NC(=O)[C@H](CCCN=C(N)N)NC(=O)[C@H]([C@@H](C)CC)NC(=O)[C@H](C(C)C)NC(=O)[C@H](C(C)C)NC1=O [RLCRIVVIRVCR]

- MIC [23]: ≥ 50 µM
- MIC [38]: ≥ 50 µM
Compound: CC[C@H](C)[C@H](NC(=O)[C@H](C)NC(=O)[C@H](CCCCN)NC(=O)[C@@H](NC(=O)[C@H](CC(C)C)NC(=O)[C@H](CCCCN)NC(=O)[C@H](CCCCN)NC(=O)[C@@H](NC(=O)CNC(=O)[C@H](C)NC(=O)[C@H](Cc1ccccc1)NC(=O)[C@H](Cc1ccc(O)cc1)NC(=O)[C@@H]1CCCN1C(=O)[C@H](CC(=O)O)NC(=O)[C@@H](N)Cc1c[nH]c2ccccc12)C(C)C)[C@@H](C)O)C(=O)N[C@@H](CC(C)C)C(=O)N[C@@H](C)C(=O)N[C@H](C(=O)N[C@@H](CCCN=C(N)N)C(=O)N[C@@H](C)C(N)=O)C(C)C [WDPYFAGVKKLTKAILAVRA]
